Experimental data from PubChem BioAssay AID248 (DTP/NCI, 2004).
Where “and” joins values, the source holds several entries; their conditions need not be identical. Equal values may be shown once. Toxic doses and inconclusive results are not listed. Rule as the data show it: active = T/C of 150% or more; inactive = T/C below 125%.

Tested on: L1210 leukemia ip in BDF1 mice, survival T/C
Assay: NCI In Vivo Anticancer Drug Screen. Data for tumor model L1210 Leukemia (intraperitoneal) in B6D2F1 (BDF1) mice
Conditions: endpoint: mean survival time, higher = longer survival
In short: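 Read-out is survival time, reported as the treated-group measurement over the vehicle-control measurement.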

[1] = dose: 50.0 mg/kg/injection, schedule: Q01DX009 (ip), vehicle: saline with Tween-80
[2] = dose: 100.0 mg/kg/injection, schedule: Q01DX009 (ip), vehicle: saline with Tween-80
[3] = dose: 200.0 mg/kg/injection, schedule: Q01DX009 (ip), vehicle: saline with Tween-80
[4] = dose: 100.0 mg/kg/injection, schedule: Q04DX002 (ip), vehicle: Klucel (hydroxypropylcellulose) (HPC)
[5] = dose: 200.0 mg/kg/injection, schedule: Q04DX002 (ip), vehicle: Klucel (hydroxypropylcellulose) (HPC)
[6] = dose: 400.0 mg/kg/injection, schedule: Q04DX002 (ip), vehicle: Klucel (hydroxypropylcellulose) (HPC)
[7] = dose: 100.0 mg/kg/injection, schedule: Q01DX001 (ip), vehicle: Klucel (hydroxypropylcellulose) (HPC)
[8] = dose: 200.0 mg/kg/injection, schedule: Q01DX001 (ip), vehicle: Klucel (hydroxypropylcellulose) (HPC)
[9] = dose: 400.0 mg/kg/injection, schedule: Q01DX001 (ip), vehicle: Klucel (hydroxypropylcellulose) (HPC)

Measured: T/C

CSc1ncnc2nncnc12
inactive: dose: 5.0 mg/kg/injection, schedule: Q01DX001 (ip), vehicle: other 104 % of control | dose: 10.0 mg/kg/injection, schedule: Q01DX001 (ip), vehicle: other 106 % of control | dose: 20.0 mg/kg/injection, schedule: Q01DX001 (ip), vehicle: other 101 % of control | dose: 40.0 mg/kg/injection, schedule: Q01DX001 (ip), vehicle: other 98 % of control

O=C(OC1CCCCC1c1ccccc1)c1cc([N+](=O)[O-])cc([N+](=O)[O-])c1 (stereo unspecified)
inactive: dose: 100.0 mg/kg/injection, schedule: Q01DX001 (ip), vehicle: other 89 % of control | dose: 200.0 mg/kg/injection, schedule: Q01DX001 (ip), vehicle: other 89 % of control | dose: 400.0 mg/kg/injection, schedule: Q01DX001 (ip), vehicle: other 89 % of control

O=C(O)/C=C\Cl
inactive: dose: 25.0 mg/kg/injection, schedule: Q01DX009 (ip), vehicle: saline 104 % of control | dose: 50.0 mg/kg/injection, schedule: Q01DX009 (ip), vehicle: saline 98 % of control | dose: 100.0 mg/kg/injection, schedule: Q01DX009 (ip), vehicle: saline 96 % of control | dose: 100.0 mg/kg/injection, schedule: Q04DX002 (ip), vehicle: saline 100 % of control and 94 % of control | dose: 200.0 mg/kg/injection, schedule: Q04DX002 (ip), vehicle: saline 93 % of control and 105 % of control | dose: 400.0 mg/kg/injection, schedule: Q04DX002 (ip), vehicle: saline 102 % of control

Cc1cc(C)c(C)c(OC(=O)Nc2ccc(Cl)cc2C(F)(F)F)c1
inactive: [1] 92 % of control | [2] 103 % of control | [3] 106 % of control

CN1CCCC(CC2c3ccccc3Sc3ccccc32)C1 (stereo unspecified)
inactive: dose: 2.0 mg/kg/injection, schedule: Q01DX015 (ip), vehicle: carboxymethylcellulose (CMC) 108 % of control | dose: 4.0 mg/kg/injection, schedule: Q01DX015 (ip), vehicle: carboxymethylcellulose (CMC) 98 % of control | dose: 8.0 mg/kg/injection, schedule: Q01DX015 (ip), vehicle: carboxymethylcellulose (CMC) 97 % of control | dose: 16.0 mg/kg/injection, schedule: Q01DX015 (ip), vehicle: carboxymethylcellulose (CMC) 91 % of control | dose: 32.0 mg/kg/injection, schedule: Q01DX015 (ip), vehicle: carboxymethylcellulose (CMC) 92 % of control

CCOC(=O)c1cc(Br)cc(Br)c1N=NN(C)C
inactive: [1] 105 % of control | [2] 113 % of control | [3] 105 % of control

c1ccc2c(c1)CCc1ccccc1C2NC1=NCCO1
inactive: dose: 12.5 mg/kg/injection, schedule: Q01DX009 (ip), vehicle: saline with Tween-80 94 % of control | dose: 12.5 mg/kg/injection, schedule: Q04DX003 (ip), vehicle: saline with Tween-80 97 % of control | dose: 25.0 mg/kg/injection, schedule: Q01DX009 (ip), vehicle: saline with Tween-80 89 % of control | dose: 25.0 mg/kg/injection, schedule: Q04DX003 (ip), vehicle: saline with Tween-80 100 % of control | [1] 93 % of control | dose: 50.0 mg/kg/injection, schedule: Q04DX003 (ip), vehicle: saline with Tween-80 93 % of control

CC1=CCC(=O)C2(C)CC(O)C(C(C)C(=O)O)C=C12 (stereo unspecified)
inactive: dose: 100.0 mg/kg/injection, schedule: Q04DX003 (ip), vehicle: acetone 97 % of control | dose: 200.0 mg/kg/injection, schedule: Q04DX003 (ip), vehicle: acetone 95 % of control | dose: 400.0 mg/kg/injection, schedule: Q04DX003 (ip), vehicle: acetone 105 % of control

CC12CCC3C(CC(=O)C45OC4C(O)CCC35C)C1CCC2=O (stereo unspecified)
inactive: dose: 100.0 mg/kg/injection, schedule: Q01DX001 (sc), vehicle: steriod suspending solution 114 % of control | dose: 200.0 mg/kg/injection, schedule: Q01DX001 (sc), vehicle: steriod suspending solution 114 % of control | dose: 400.0 mg/kg/injection, schedule: Q01DX001 (sc), vehicle: steriod suspending solution 121 % of control

O=C(O)CN1C(=O)C2C3CCC(C3)C2C1=O (stereo unspecified)
inactive: dose: 100.0 mg/kg/injection, schedule: Q04DX003 (ip), vehicle: saline with Tween-80 97 % of control | dose: 200.0 mg/kg/injection, schedule: Q04DX003 (ip), vehicle: saline with Tween-80 97 % of control | dose: 400.0 mg/kg/injection, schedule: Q04DX003 (ip), vehicle: saline with Tween-80 94 % of control

CC1(C)OCC2OC3(C(=O)O)OC(C)(C)OC3C2O1 (stereo unspecified)
inactive: dose: 25.0 mg/kg/injection, schedule: Q01DX009 (ip), vehicle: water 105 % of control | dose: 50.0 mg/kg/injection, schedule: Q01DX009 (ip), vehicle: water 101 % of control | dose: 100.0 mg/kg/injection, schedule: Q01DX009 (ip), vehicle: water 96 % of control | dose: 200.0 mg/kg/injection, schedule: Q01DX009 (ip), vehicle: water 101 % of control | dose: 400.0 mg/kg/injection, schedule: Q01DX009 (ip), vehicle: water 95 % of control

CCCCCCCC[n+]1cccc(C#N)c1
inactive: dose: 18.75 mg/kg/injection, schedule: Q01DX009 (ip), vehicle: saline 104 % of control | dose: 37.5 mg/kg/injection, schedule: Q01DX009 (ip), vehicle: saline 91 % of control | dose: 37.5 mg/kg/injection, schedule: Q04DX003 (ip), vehicle: acetone 97 % of control | dose: 75.0 mg/kg/injection, schedule: Q01DX001 (ip), vehicle: saline 91 % of control | dose: 75.0 mg/kg/injection, schedule: Q01DX009 (ip), vehicle: saline 93 % of control | dose: 75.0 mg/kg/injection, schedule: Q04DX003 (ip), vehicle: acetone 97 % of control | dose: 150.0 mg/kg/injection, schedule: Q01DX001 (ip), vehicle: saline 95 % of control | dose: 150.0 mg/kg/injection, schedule: Q04DX003 (ip), vehicle: acetone 95 % of control

CCOC(=O)CCc1c(C(=O)OCC)[nH]c2ccc(Cl)cc12
inactive: [4] 96 % of control | [5] 100 % of control | [6] 96 % of control

CCOP(=O)(OCC)OCc1cnc(SC)nc1N
inactive: dose: 50.0 mg/kg/injection, schedule: Q01DX001 (ip), vehicle: saline 99 % of control | dose: 100.0 mg/kg/injection, schedule: Q01DX001 (ip), vehicle: saline 108 % of control

CC1(C)CCCC2(C)C(=O)C3CCC2C31 (stereo unspecified)
inactive: [7] 98 % of control | [8] 91 % of control | [9] 91 % of control

CC(C)(C)C(=O)CC(=O)C(C)(C)C.CC(C)(C)C(=O)CC(=O)C(C)(C)C.CC(C)(C)C(=O)CC(=O)C(C)(C)C.[Yb]
inactive: dose: 100.0 mg/kg/injection, schedule: Q01DX005 (ip), vehicle: Klucel (hydroxypropylcellulose) (HPC) 97 % of control | dose: 100.0 mg/kg/injection, schedule: Q01DX009 (ip), vehicle: Klucel (hydroxypropylcellulose) (HPC) 97 % of control | [4] 96 % of control | dose: 200.0 mg/kg/injection, schedule: Q01DX005 (ip), vehicle: Klucel (hydroxypropylcellulose) (HPC) 105 % of control | dose: 200.0 mg/kg/injection, schedule: Q01DX009 (ip), vehicle: Klucel (hydroxypropylcellulose) (HPC) 97 % of control | [5] 107 % of control | dose: 400.0 mg/kg/injection, schedule: Q01DX005 (ip), vehicle: Klucel (hydroxypropylcellulose) (HPC) 101 % of control | dose: 400.0 mg/kg/injection, schedule: Q01DX009 (ip), vehicle: Klucel (hydroxypropylcellulose) (HPC) 97 % of control | [6] 96 % of control

O=C1CC(C(=O)O)C2(CCCCC2)O1 (stereo unspecified)
inactive: dose: 100.0 mg/kg/injection, schedule: Q04DX002 (ip), vehicle: saline with Tween-80 104 % of control | dose: 200.0 mg/kg/injection, schedule: Q04DX002 (ip), vehicle: saline with Tween-80 101 % of control | dose: 400.0 mg/kg/injection, schedule: Q04DX002 (ip), vehicle: saline with Tween-80 101 % of control

COc1ccccc1-n1c(=O)c(N=Nc2ccc(Br)cc2)c(O)n(-c2ccccc2C)c1=S
inactive: [7] 109 % of control | [8] 98 % of control | [9] 98 % of control

O=C1Cc2ccccc2/C=C\c2ccccc21
inactive: [7] 97 % of control | dose: 100.0 mg/kg/injection, schedule: Q04DX003 (ip), vehicle: Klucel (hydroxypropylcellulose) (HPC) 102 % of control | [8] 100 % of control | dose: 200.0 mg/kg/injection, schedule: Q04DX003 (ip), vehicle: Klucel (hydroxypropylcellulose) (HPC) 96 % of control | [9] 106 % of control | dose: 400.0 mg/kg/injection, schedule: Q04DX003 (ip), vehicle: Klucel (hydroxypropylcellulose) (HPC) 102 % of control
